The source made the active and inactive calls.
Assays:
[1] = human group III sPLA2 inhibitors, dose response, biochemical, QFRET, IC50 (AID 743457);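 also: green fluorescence rise as the enzyme cleaves BODIPY PC-A2 in liposomes; potency for inhibition of the enzyme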
[2] = target: ADP-ribosylation factor GTPase-activating protein 1 (Rattus norvegicus, UniProt Q62848); test: Fluorescence polarization-based biochemical high throughput dose response screening assay to identify inhibitors of ADP-ribosylation factor GTPase activating protein 1 (ARFGAP1).; type: functional
[3] = cytotoxicity in HEK-293T cells, dose response, cytotoxicity control for TCR NF-kB inhibitor project, luminescence, T-cell screen hits (AID 489026); type: functional, cell-based;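 also: cells exposed to compound about 14 hours before the viability readout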
[4] = target: Photoreceptor-specific nuclear receptor (Homo sapiens, UniProt Q9Y5X4); test: NR2E3 inverse agonists, dose response, biochemical, TR-FRET (AID 463256); type: functional
[5] = target: Peroxisome proliferator-activated receptor gamma/Nuclear receptor corepressor 2 (Homo sapiens, UniProt P37231+Q9Y618); test: Counterscreen for NR2E3 inverse agonists: TR-FRET-based biochemical high throughput dose response assay to identify inverse agonists of the interaction between peroxisome proliferator-activated receptor gamma (PPARg) and nuclear receptor co-repressor 2 (NCOR2).; type: functional
[6] = Counterscreen for activators of the function of SWI/SNF related, matrix associated, actin dependent regulator of chromatin, subfamily a, member 2 (SMARCA2, BRM): Luminescence-based cell-based high throughput dose response assay to identify non-selective compounds using the VP16 reporter assay.; type: functional
[7] = target: SWI/SNF-related matrix-associated actin-dependent regulator of chromatin subfamily A member 2 (Homo sapiens, UniProt P51531); test: Luminescence-based cell-based high throughput dose response assay to identify activators of the function of SWI/SNF related, matrix associated, actin dependent regulator of chromatin, subfamily a, member 2 (SMARCA2, BRM).; type: functional
[8] = HEp-2 cell cytotoxicity, dose response, cytotoxicity control for RSV inhibitor project, HTS (AID 2410); type: functional; details: human respiratory syncytial virus
[9] = ADAM10 protease inhibitors, dose response, selectivity assay for ADAM17 exosite inhibitor project, biochemical, FRET peptide substrate, recombinant human ADAM10 (AID 743259);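 also: ADAM10 enzyme cleaving a FRET peptide substrate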
[10] = target: Disintegrin and metalloproteinase domain-containing protein 17 (Homo sapiens, UniProt P78536); test: exosite inhibitors of ADAM17, dose response, biochemical (AID 743260)
Fatty acid synthase = Fatty acid synthase (Homo sapiens, UniProt P49327); test: FAS thioesterase domain inhibitors, dose response, biochemical, kinetic fluorescence intensity (AID 624326); type: functional;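 also: rate of fluorescence rise from hydrolysis of a fluorogenic O-methyl fluorescein ester substrate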
[11] = target: 5-hydroxytryptamine receptor 2A (Mus musculus, UniProt P35363); type: functional, cell-based;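 also: CHO-K1 cells with tagged receptor and beta-arrestin; agonist potency measured as compound-induced activation of the receptor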
[12] = HepG2 cell cytotoxicity, dose response, cytotoxicity control, ATP luminescence, cherry-pick, activator set 2 (AID 1053143); type: functional, cell-based
[13] = target: T1, Methionyl-tRNA synthetase, putative (Trypanosoma brucei brucei, UniProt Q38C91); type: functional, Trypanosoma brucei brucei strain 927/4 GUTat10.1
T1 sequence (Q38C91 whole entry): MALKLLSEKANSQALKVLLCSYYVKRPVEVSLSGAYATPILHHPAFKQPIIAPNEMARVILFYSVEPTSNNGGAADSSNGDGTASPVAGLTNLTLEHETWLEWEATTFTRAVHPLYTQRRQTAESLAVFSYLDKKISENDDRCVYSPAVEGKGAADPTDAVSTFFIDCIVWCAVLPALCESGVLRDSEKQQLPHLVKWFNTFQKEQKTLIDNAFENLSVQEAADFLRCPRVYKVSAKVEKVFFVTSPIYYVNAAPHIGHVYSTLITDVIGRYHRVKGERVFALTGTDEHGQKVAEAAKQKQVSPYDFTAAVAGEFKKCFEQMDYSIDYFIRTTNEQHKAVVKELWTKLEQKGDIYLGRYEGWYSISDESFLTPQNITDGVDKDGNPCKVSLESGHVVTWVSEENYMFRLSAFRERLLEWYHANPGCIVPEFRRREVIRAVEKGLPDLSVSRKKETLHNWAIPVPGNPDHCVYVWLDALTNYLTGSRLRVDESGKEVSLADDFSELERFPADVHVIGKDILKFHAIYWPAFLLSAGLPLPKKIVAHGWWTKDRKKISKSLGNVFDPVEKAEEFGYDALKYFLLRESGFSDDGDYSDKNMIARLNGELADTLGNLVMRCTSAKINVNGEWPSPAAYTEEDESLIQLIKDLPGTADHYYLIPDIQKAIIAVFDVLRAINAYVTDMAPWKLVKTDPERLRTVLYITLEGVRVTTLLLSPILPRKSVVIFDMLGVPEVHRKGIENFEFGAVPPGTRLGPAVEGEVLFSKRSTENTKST

[14] = target: T1, Methionyl-tRNA synthetase, putative; type: functional, Trypanosoma brucei brucei strain 927/4 GUTat10.1; remark: listed apart in the source
[15] = Counterscreen for inhibitors of Trypanosoma brucei methionyl tRNA synthetase (MetRS): Luminescence-based cell-based high throughput dose response assay to identify compounds that are cytotoxic to Jurkat human T lymphocyte cells.; type: functional
[16] = microbe, parasite or virus in culture; type: functional; details: Mycobacterium tuberculosis
cells = type: functional
[17] = target: T2, Small ubiquitin-related modifier 1 (Homo sapiens, UniProt P63165); test: inhibitors of SUMO1 peptide binding, dose response, biochemical, fluorescence polarization, uHTS hits (AID 624382); type: functional; details: read-out: IC50_Mean
[18] = target: T2, Small ubiquitin-related modifier 1; test: inhibitors of SUMO1 partner interactions, dose response, biochemical, FRET (AID 624383); type: functional; details: read-out: IC50_Mean
[19] = target: T3, Probable nicotinate-nucleotide adenylyltransferase (Staphylococcus aureus (strain N315), UniProt P65502); type: functional, Staphylococcus aureus subsp. aureus N315; details: read-out: IC50_Mean;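 as to IC50 Mean: confirmatory dose-response retesting of NadD inhibitor hits first found in an ultra-high-throughput screen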
Aminopeptidase N = target: T4, Aminopeptidase N (Plasmodium falciparum FcB1/Columbia, UniProt O96935); test: P. falciparum M1AAP inhibitors, biochemical, fluorogenic H-Leu-NHMec substrate, 1536-well (AID 1445); design: species or system Plasmodium falciparum 3D7, 3D7
T4 sequence (O96935 whole entry): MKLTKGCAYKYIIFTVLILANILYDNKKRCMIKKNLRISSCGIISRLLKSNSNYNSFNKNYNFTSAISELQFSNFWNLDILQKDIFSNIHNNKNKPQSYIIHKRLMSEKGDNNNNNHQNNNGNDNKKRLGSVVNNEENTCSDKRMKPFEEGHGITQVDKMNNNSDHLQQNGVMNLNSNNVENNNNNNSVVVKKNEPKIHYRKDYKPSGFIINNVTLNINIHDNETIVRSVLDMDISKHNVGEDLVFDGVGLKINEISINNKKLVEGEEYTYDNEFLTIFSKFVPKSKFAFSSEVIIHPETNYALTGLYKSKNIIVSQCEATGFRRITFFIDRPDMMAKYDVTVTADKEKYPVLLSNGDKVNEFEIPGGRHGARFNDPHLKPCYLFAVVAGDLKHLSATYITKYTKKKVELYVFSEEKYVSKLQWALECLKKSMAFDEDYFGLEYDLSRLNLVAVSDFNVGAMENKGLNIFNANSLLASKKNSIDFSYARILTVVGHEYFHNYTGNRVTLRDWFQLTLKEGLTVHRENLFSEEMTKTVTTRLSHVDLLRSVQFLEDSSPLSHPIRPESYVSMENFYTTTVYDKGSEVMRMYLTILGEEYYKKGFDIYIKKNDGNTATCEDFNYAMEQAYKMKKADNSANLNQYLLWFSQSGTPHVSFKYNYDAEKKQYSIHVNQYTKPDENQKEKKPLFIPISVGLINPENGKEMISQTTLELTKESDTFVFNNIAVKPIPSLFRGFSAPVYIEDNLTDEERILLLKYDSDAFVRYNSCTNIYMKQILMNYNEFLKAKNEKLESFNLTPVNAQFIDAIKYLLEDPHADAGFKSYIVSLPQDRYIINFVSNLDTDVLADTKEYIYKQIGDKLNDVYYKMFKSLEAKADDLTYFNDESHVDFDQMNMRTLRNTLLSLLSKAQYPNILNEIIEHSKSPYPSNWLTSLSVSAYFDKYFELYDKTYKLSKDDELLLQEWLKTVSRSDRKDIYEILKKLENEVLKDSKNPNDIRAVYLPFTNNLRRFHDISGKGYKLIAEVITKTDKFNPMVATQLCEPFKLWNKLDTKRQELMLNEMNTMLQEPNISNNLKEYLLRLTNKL

[20] = target: T3, Probable nicotinate-nucleotide adenylyltransferase; type: functional, Staphylococcus aureus subsp. aureus N315
[21] = tested on: Streptococcus sp. 'group A'; test: growth inhibition of control SK(-) GAS strain, dose response, counter-screen for streptokinase expression inhibitor project, luminescence, kanamycin, BacTiterGlo, confirmation (AID 1900); type: functional, organism-based
Streptococcus = test: Group A Streptococcus viability loss, dose response, counter-screen for streptokinase expression inhibitor project, luminescence, BacTiterGlo (AID 1915); type: functional, organism-based;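 also: potency for reduction of bacterial viability or growth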

T3 sequence (P65502 whole entry): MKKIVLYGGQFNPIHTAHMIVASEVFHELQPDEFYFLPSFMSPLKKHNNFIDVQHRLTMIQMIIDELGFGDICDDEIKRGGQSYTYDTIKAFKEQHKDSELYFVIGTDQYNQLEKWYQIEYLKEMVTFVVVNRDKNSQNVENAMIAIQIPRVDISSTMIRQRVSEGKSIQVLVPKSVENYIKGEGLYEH
T2 sequence (P63165 whole entry): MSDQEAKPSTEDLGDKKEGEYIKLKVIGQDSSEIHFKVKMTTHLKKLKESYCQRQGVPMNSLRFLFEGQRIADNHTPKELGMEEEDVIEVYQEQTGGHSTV
Chain of SWI/SNF-related matrix-associated actin-dependent regulator of chromatin subfamily A member 2 (P51531 whole entry): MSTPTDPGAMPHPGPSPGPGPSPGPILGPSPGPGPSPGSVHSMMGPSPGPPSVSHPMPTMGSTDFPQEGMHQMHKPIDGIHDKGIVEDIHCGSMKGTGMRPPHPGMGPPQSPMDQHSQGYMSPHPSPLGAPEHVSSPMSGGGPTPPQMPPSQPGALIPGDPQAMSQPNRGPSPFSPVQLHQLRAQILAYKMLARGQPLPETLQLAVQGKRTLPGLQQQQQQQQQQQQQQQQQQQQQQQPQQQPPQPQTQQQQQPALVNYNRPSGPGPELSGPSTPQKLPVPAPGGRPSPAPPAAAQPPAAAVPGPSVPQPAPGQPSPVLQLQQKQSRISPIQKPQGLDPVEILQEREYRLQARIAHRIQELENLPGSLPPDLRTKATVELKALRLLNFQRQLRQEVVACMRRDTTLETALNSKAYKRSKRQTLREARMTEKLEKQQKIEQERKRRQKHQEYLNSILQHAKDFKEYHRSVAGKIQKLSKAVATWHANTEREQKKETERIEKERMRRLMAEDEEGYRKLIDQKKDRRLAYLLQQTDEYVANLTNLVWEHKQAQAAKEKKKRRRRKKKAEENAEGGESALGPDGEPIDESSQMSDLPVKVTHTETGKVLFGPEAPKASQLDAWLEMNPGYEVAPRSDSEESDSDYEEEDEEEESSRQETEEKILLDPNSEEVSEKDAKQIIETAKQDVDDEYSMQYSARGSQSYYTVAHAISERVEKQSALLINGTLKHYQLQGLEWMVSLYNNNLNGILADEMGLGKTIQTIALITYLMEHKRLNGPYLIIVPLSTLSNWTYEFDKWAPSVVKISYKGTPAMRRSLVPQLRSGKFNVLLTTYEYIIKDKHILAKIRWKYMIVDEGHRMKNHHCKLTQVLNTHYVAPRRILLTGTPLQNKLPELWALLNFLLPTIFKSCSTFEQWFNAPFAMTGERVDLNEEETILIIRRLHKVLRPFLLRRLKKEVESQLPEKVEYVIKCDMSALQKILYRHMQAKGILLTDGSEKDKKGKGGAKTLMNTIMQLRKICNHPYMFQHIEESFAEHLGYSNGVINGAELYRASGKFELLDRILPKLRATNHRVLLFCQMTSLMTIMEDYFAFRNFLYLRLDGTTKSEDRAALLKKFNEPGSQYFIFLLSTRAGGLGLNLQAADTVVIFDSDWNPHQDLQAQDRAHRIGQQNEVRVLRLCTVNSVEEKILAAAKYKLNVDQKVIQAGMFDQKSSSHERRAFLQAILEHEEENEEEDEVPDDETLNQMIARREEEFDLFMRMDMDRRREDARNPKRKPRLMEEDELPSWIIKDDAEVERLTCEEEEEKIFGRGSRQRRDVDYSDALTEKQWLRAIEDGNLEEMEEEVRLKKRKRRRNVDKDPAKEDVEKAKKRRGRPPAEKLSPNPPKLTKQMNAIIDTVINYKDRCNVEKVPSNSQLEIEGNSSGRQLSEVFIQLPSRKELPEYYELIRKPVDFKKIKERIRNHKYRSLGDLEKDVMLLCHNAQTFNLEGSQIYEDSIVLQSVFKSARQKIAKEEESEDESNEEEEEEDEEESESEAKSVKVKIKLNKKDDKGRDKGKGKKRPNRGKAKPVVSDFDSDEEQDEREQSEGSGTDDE
Chain of Photoreceptor-specific nuclear receptor (Q9Y5X4 whole entry): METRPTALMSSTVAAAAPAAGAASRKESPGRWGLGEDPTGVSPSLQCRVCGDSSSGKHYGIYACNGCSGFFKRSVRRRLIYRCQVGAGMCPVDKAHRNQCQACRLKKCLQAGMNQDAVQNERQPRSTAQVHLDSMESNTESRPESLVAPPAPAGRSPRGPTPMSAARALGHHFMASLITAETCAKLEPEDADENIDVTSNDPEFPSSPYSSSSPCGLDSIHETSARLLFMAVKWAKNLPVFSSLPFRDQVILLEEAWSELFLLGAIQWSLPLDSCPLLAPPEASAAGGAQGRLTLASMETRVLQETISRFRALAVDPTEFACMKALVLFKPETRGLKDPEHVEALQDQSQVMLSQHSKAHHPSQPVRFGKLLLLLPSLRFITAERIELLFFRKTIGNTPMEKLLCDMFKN
Chain of 5-hydroxytryptamine receptor 2A (P35363 whole entry): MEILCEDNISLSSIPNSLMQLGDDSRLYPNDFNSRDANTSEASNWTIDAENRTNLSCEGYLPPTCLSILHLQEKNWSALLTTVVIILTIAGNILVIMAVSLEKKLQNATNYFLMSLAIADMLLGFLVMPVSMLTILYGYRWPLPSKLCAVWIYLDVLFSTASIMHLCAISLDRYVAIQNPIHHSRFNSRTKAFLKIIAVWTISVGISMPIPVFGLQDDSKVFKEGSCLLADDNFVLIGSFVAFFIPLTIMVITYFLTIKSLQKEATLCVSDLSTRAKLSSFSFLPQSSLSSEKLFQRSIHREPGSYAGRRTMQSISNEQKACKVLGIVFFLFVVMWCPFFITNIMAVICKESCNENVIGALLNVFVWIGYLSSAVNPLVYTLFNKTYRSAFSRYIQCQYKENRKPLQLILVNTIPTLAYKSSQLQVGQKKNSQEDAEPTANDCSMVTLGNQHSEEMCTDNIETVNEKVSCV
Chain of ADP-ribosylation factor GTPase-activating protein 1 (Q62848 whole entry): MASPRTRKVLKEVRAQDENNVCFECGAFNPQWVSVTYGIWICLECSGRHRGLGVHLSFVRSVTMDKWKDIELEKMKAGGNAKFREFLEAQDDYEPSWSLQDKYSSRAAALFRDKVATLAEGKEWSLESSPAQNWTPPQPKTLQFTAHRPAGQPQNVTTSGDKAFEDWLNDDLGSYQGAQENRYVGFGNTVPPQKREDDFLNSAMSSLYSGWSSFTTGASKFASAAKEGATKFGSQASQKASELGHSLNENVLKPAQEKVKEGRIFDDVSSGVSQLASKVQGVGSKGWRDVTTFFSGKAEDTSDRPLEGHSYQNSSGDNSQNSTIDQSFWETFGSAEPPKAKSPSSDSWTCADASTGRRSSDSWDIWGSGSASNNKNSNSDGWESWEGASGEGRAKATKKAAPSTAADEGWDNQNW
Chain of Disintegrin and metalloproteinase domain-containing protein 17 (P78536 whole entry, the tested form may be a part): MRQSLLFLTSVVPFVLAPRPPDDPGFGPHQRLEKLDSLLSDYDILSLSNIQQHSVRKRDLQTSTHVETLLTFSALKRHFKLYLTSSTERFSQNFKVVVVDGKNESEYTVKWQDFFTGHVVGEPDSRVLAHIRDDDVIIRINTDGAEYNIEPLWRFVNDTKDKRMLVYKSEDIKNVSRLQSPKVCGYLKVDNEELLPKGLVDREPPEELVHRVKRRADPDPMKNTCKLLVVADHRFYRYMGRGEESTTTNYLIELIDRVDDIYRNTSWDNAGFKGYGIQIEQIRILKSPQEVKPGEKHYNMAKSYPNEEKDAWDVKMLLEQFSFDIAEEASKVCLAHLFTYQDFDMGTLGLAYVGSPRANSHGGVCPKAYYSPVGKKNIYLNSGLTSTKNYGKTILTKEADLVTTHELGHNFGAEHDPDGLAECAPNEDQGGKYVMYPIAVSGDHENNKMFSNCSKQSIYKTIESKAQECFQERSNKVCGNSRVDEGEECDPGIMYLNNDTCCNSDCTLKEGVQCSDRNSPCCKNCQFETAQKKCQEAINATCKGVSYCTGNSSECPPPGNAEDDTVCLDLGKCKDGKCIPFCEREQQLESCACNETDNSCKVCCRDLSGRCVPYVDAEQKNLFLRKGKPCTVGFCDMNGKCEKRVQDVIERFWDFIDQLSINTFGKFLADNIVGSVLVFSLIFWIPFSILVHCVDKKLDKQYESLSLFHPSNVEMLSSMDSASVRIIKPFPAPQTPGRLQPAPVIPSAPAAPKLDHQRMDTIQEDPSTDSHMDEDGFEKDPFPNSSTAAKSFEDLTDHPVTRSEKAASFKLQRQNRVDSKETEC

For CN1/C(=C\C(=O)Nc2ccc(F)cc2)C(C)(C)c2ccccc21, the IC50 [1] was > 122 µM (inactive).

For COc1cc(NC(=O)COc2ccc([N+](=O)[O-])cc2)ccc1NC(=O)c1ccco1, the IC50 [2] was 33.6 µM (inactive).

In the case of CC1(C)Cc2c(sc(NC(=O)COc3cccc4ccccc34)c2C#N)C(C)(C)N1, the IC50 [3] is reported as > 80 µM (inactive), the IC50 [4] is reported as 8.84 µM (active) and the IC50 [5] is reported as 8.33 µM (active). The EC50 [6] was > 91.2 µM (inactive) and the EC50 [7] was > 10.1 µM (inactive).

With c1ccc2c(c1)nnn2-c1ncnc2sccc12 the CC50 [8] was 46.8 µM (active), the EC50 [6] was > 91.2 µM (inactive) and the EC50 [7] was > 91.2 µM (inactive).

With Cc1ccc(NC(=O)NNC(=O)Cn2nc(-c3ccccc3)c(-c3ccccc3)c(C#N)c2=O)cc1 the IC50 [9] was > 69.5 µM (inactive), the IC50 [10] was > 69.5 µM (inactive) and the IC50 (Fatty acid synthase) was 4.64 µM (active).

For NC[C@H](O)c1ccc(O)c(O)c1 [NOREPINEPHRINE BITARTRATE], the EC50 [11] was 806 nM (active).

With Cc1occc1C(=O)Nc1ccc2c(c1)OCCO2 the AC50 [12] was > 52 µM (inactive).

For O=C(NNC(=O)c1ccc(-n2cncn2)c([N+](=O)[O-])c1)c1ccccc1, the IC50 [13] was 32.3 µM (inactive), the IC50 [14] was 11.9 µM (inactive) and the IC50 [15] was 83.3 µM (inactive).

With Oc1cc(NCc2cccnc2)ccc1-c1nc2ccccc2o1 the AC50 [12] was 26 µM (active), the CC50 [16] was > 40 µM (active) and the IC50 (cells) was 14.1 µM (active).

In the case of C/C=C/C=C\C(=O)Nc1cccc(C2=NOC3(C2)C[C@H](C(N)=O)N(C(=O)CC#N)C3)c1 (stereo partly specified), the IC50 [17] is reported as > 66.6 µM (inactive) and the IC50 [18] is reported as 3.34 µM (active).

For O=C(CCCNC(=O)c1ccc(Cl)cc1)Nc1ccc(Br)cc1, the IC50 [13] was 119 µM (inactive), the IC50 [14] was 7.11 µM (active) and the IC50 [15] was 83.4 µM (inactive).

In the case of COc1ccc(NC(=O)CSc2nc(O)c3c(C(F)(F)F)cc(-c4cccs4)nc3n2)c(OC)c1, the IC50 [19] is reported as 32.1 µM (active), the IC50 (Aminopeptidase N) is reported as 56.5 µM (active) and the IC50 [20] is reported as 4.89 µM (active). For the same molecule, the EC50 [21] was 11.6 µM (active) and the EC50 (Streptococcus) was 124 µM (active).
